Laboratory results reported in US20060094676A1, “Compositions and methods for treating cancer using compositions comprising an inhibitor of endothelin receptor activity” (priority 2004, published 2006).
Non-standard residues stand in square brackets, D forms with d. Residues, ends and D or L forms follow the SMILES beside them.

Test system: VEGF
Assay: Real-time RT-PCR of VEGF transcripts
Assay type: cell-based, human
Details: BQ123 in combination with BQ788; melanoma cell lines of the study; data not shown
Method: Equal amounts of RNA from cells that were treated with BQ788 for 3 days were subjected to real-time RT-PCR analysis for the detection VEGF (A), HIF-1α (B) and Gravin (C) transcripts. Differences in expression levels are shown as x fold change and are statistically significant (p<0.05) unless a column in marked as non significant (N.S.). Sections of two representative tumors derived from a human melanoma cell line grown in nude mice and injected either with vehicle (D) or BQ788 (E) were stained with anti CD-31 to highlight blood vessels (brown staining, Lahav et al, 1999).
RNA was prepared from the different cell lines in different culture conditions using SV total RNA isolation kit (Promega) according to the manufacturer's protocol. For each sample RNA concentration was determined using the total RNA nano procedure of an Agilent bioanalyzer. A stock of SK-MEL-28 RNA aliquots was prepared containing 10, 20, 50, 100, 200, 500 and 1000 ng/12 μl for use as a standard curve and kept in −80° C. For the experimental unknown samples, a stock of 100 ng/12 μl RNA aliquots from each cell line and condition was prepared and stored at −80° C. For each real-time experiment one series of standard curve and unknown experimental series of aliquots was put on ice for use. Complementary DNA was prepared by adding to each tube 0.5 μl of random hexamers (Promega) and 1 μl of 10 mM dNTP mix (Promega) and incubating at 65° C. for 5 min. 4 μl of 5× M-MLV buffer (Promega), 1 μl of the RNase inhibitor RNasin (Promega) and 1 μl of M-MLV RT RNase H (Promega) were then added and the solution was incubated at 42° C. for 50 min followed by 15 min at 70° C. For real time reactions 15 μl of each cDNA sample were transferred to 3 wells in a 386 well plate. To each well we added 10 μl of TaqMan universal PCR master mix (Applied Biosystems), 1 μl of primers+probe mix (Assays-on-Demand from Applied Biosystems: EDNRB Hs00240747, BCL-2A1 Hs00187845, PARP-3 Hs00154151, VEGF Hs00173626, HIF-1α Hs00153153 and Gravin Hs00374507) and 4 μl of nuclease free water (Promega). Wells containing water instead of cDNA served as negative controls. The samples were subjected to 40 cycles of 15 sec at 95° C. and 1 min at 60° C. A standard curve of Ct versus RNA quantity was established and accordingly the Ct in the unknown samples was correlated to quantity of transcript.
Real-time PCR analysis confirmed that VEGF expression levels increased 18-fold in BQ788 treated LN-met cells and 65-fold in SK-MEL-28 cells, compared to only 2-fold in primary melanoma, and no change in the Cut-met line (FIG. 5). The changes in VEGF expression levels can be explained, at least in part, by changes in the expression levels of its known regulator hypoxia inducible factor-1 oc (HIF-1α) (Maxwell, et al., Oxygen sensors and angiogenesis, Semin. Cell Dev. Biol., 13:29-37 (2002)). […]

CC(C)C[C@@H]1NC(=O)[C@@H](C(C)C)NC(=O)[C@@H]2CCCN2C(=O)[C@@H](CC(=O)O)NC(=O)[C@@H](Cc2c[nH]c3ccccc23)NC1=O [BQ123] (cyclo(L[dW][dD]P[dV]))
VEGF RNA levels compared to BQ788 alone: did not result in changes
